Experiments:
[1] = test system: drug resistant leukemia stem cells; test: NOD/SCID/IL2rγ-/- mouse model of engrafted human CML; assay type: in vivo
Source text: Chronic myelogenous leukemia (CML). Despite the stunning clinical success achieved to date in chronic phase CML patients treated with the BCR-ABL antagonist Gleevec/Imatinib (IM), responses in advanced phase patients are often short-lived, and patients invariably undergo disease progression. Furthermore, resistance to IM develops in 2% to 4% of patients annually and IM dose escalation is generally not sufficient to control the disease. Several mechanisms that contribute to tyrosine kinase inhibitor (TKI) resistance have been proposed including the insensitivity of quiescent CML stem cells to TKIs due to low expression of BCR-ABL and the emergence of drug resistant leukemic clones associated with increased nuclear catenin levels, a hallmark of increased Wnt/catenin transcription. […] Epigenetic silencing of negative regulators of the Wnt signaling cascade is also frequently associated with leukemias, including CML. […] The mice treated with one course (28 days from day 13-41 after leukemia engraftment) of CBP/catenin antagonist plus bcr-abl antagonist are essentially cured of leukemia and live as long (approximately 2 years) as their littermates that were never engrafted with leukemia.

[2] = target: CBP/beta-catenin interaction (Homo sapiens, UniProt Q92793); test: disruption of CBP/beta-catenin interaction; assay type: binding
Sequence of CBP/beta-catenin interaction (Q92793 1-111): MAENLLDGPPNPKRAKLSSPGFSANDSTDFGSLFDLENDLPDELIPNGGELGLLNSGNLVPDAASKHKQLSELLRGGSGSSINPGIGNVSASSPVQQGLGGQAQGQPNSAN
Source text: Applicant next mapped the binding domains between CBP and beta-catenin, as well as between p300 and beta-catenin. The C-terminal trans-activating region of beta-catenin (647-781) interacted with the same 1-111 amino acids of both CBP and p300 (23). However, only the interaction between CBP and beta-catenin was disrupted by ICG-001, and not the p300/beta-catenin interaction.

[3] = test system: mitotic cells in the ventricular zone (VZ); test: symmetric versus asymmetric divisions (Par3 distribution) in the ventricular zone of mouse embryos; assay type: in vivo; details: topical or oral administration to pregnant mice
Source text: Taking advantage of the ready uptake and penetration through the placental barrier of applicant's small molecule Wnt modulators, applicant designed a series of experiments to investigate symmetric versus asymmetric divisions in the ventricular zone (VZ) of the brain during mouse embryonic development. Timed pregnant mice were topically treated for various time periods (1-3 days) with DMSO (vehicle control), the CBP/catenin antagonist ICG-001 or the p300/catenin antagonist IQ-1. Using a previously described protocol (56), the localization of […] (Par3) and DNA was examined in mitotic cells in the VZ. Par3 distributes symmetrically in cells that divide symmetrically and asymmetrically in cells that divide asymmetrically, whereas the DNA distributes symmetrically between the 2 cells. Using fluorescence microscopy, the percentage of mitotic cells dividing symmetrically or asymmetrically could be quantified. […] Antagonizing the CBP/catenin interaction with ICG-001 had no apparent effect yielding similarly, approximately 21% asymmetric divisions. […] Importantly, this decrease in asymmetric divisions upon treatment with IQ-1 could be rescued back essentially to control levels (i.e. ˜21%) by treatment with a 2-fold excess of ICG-001. Even further divergence in symmetric versus asymmetric divisions could be seen upon prolonged treatments. For example, treatment with IQ-1 (i.e., antagonizing p300/catenin interaction leading to increased usage of CBP) for 3 days (E13.5-16.5) decreased asymmetric divisions compared to control from 31% to 7%. […] This reporter mouse expresses EGFP, driven by the Tis21 promoter, in cells that have undergone neurogenic differentiative divisions.
For example, Bultje et al (Bultje R Neuron 63, 189-202, 2009) describe an assay to measure asymmetric distributions in the ventricular zone (vz) to evaluate asymmetric divisions during neurogenesis. Essentially this involves treating the animal (either adult or in utero) for a set period of time with compounds (either p.o., s.c., i.v. or topically) with compounds and then sacrificing the animal and examining the Par3 distribution (e.g., via immunohistochemistry) in mitotic cells vs. DNA distribution (e.g., using DAPI staining) Par3 distributes equally among the two daughter cells during symmetric division and unequally (essentially all in one daughter cell) during asymmetric differentiation.

Min mouse = Min mouse polyps; details: in vivo
Source text: Cancer. The importance of Wnt signaling in colorectal cancer is undisputed. Applicant's investigation on the therapeutic utility of ICG-001 therefore quite naturally began with colon cancer.

[4] = test system: Wnt/catenin transcription in SW480 colon carcinoma cells; test: TOPFLASH TCF/catenin luciferase reporter; assay type: cell-based; details: Homo sapiens
Source text: ICG-001. Applicant's pharmacologic tools were identified using cell-based forward chemical genomic screens of small molecule secondary structure template chemical libraries (22).

[5] = topical treatment of pregnant mice throughout pregnancy, offspring outcome; assay type: in vivo, mouse; details: mothers treated topically 0.5M
Source text: Acute Promyelocytic Leukemia (APL) is unique among myeloid leukemias due to its sensitivity to all-trans retinoic acid (ATRA), a derivative of vitamin A. Treatment with ATRA dissociates the NCOR-HDACL complex from RAR and allows DNA transcription and differentiation of the immature leukemic promyelocytes into mature granulocytes by targeting the oncogenic transcription factor and its aberrant action. […] A large number of scientific studies have also investigated a possible role for vitamin D in cancer prevention, including colon, prostate, breast, pancreatic and skin cancer. […] However, there are also reports of synergistic effects on the activation of gene expression by ATRA and Wnt for example (47). […] This is the same region of these coactivator proteins (i.e., CBP and p300) that partners with catenin (both beta and gamma) and the CBP/catenin antagonists (e.g., ICG-001) also bind to this region. These nuclear receptor ligands have many of the same differentiating effects on stem cell populations that applicant has observed with specific CBP/catenin antagonists. Although, both Vitamin A and D are required during development and have many beneficial health effects in adulthood, both are teratogenic at high levels. […]

Compound: O=C1[C@H](Cc2ccc(O)cc2)N2C(=O)CCN(C(=O)NCc3ccccc3)[C@H]2CN1Cc1cccc2ccccc12 [ICG-001]
- effect on normal endogenous hematopoiesis ([1]; mouse, in vivo): without deleterious effects to normal endogenous hematopoiesis
- elimination of drug resistant leukemia stem cells ([1]; with bcr-abl antagonist): drug resistant leukemia stem cells can be eliminated
- disruption of the CBP/beta-catenin interaction [2]: disrupted
- effect on number of asymmetric divisions [3]: does not affect the number of asymmetric divisions
- polyps (Min mouse): reducing polyps
- IC50 [4]: 3 µM
- weight and size of offspring at 6 weeks of age ([5]; ~E0.5 to ~E20): normal weight and size
- effects on germ cell populations of offspring ([5]; second generation bred): no deleterious effects on germ cell populations

From patent US9371330B2, “Substituted pyrazino[1,2-a]pyrimidines useful as CBP/catenin antagonists for enhancing asymmetric division of somatic stem cells” (University of Southern California, priority 2011, dated 2016)
